According to US11351168B1 (Celgene CAR LLC, priority 2008, dated 2022):

These compounds were tested on BTK signaling in Ramos cells (assay: BTK Ramos cellular assay (phosphorylation of BTK substrate PLCγ2)). Details: Homo sapiens, 1 hour compound, anti-IgM stimulation, read-out: BTK Inhibition (Ramos cellular).
Assay type: cell-based, human
Procedure: Compounds I-2, I-4, and I-7 were assayed in Ramos human Burkitt lymphoma cells. Ramos cells were grown in suspension in T225 flasks, spun down, resuspended in 50 ml serum-free media and incubated for 1 hour. Compound was added to Ramos cells in serum free media to a final concentration of 1, 0.1, 0.01, or 0.001 μM. Ramos cells were incubated with compound for 1 hour, washed again and resuspended in 100 ul serum-free media. Cells were then stimulated with 1 μg of goat F(ab′)2 Anti-Human IgM and incubated on ice for 10 minutes to activate B cell receptor signaling pathways. After 10 minutes, the cells were washed once with PBS and then lysed on ice with Invitrogen Cell Extraction buffer. 16 μg total protein from lysates were loaded on gel and blots were probed for phosphorylation of the BTK substrate PLCγ2.

Compared with `C=CC(=O)Nc1cccc(Oc2nc(Nc3ccc(OC)nc3)ncc2C(=O)Nc2ccccc2)c1` [Compound I-159, 4-(3-acrylamidophenoxy)-2-(6-methoxypyridin-3-ylamino)-pyrimidine-5-carboxylic acid phenylamide], `C=CC(=O)Nc1cccc(Oc2nc(Nc3ccc(OC)nc3)ncc2C(C)=O)c1` [Compound I-188, N-{3-[5-Acetyl-2-(6-methoxy-pyridin-3-ylamino)-pyrimidin-4-yloxy]-phenyl}-acrylamide] is lower in IC50: 100 to 1000 nM for the first, less than 10 nM for the second.

Compared with `C=CC(=O)N1CCC[C@@H](Oc2nc(Nc3ccc(OC)nc3)ncc2F)C1` [Compound I-180, (R)-1-(3-(5-fluoro-2-(6-methoxypyridin-3-ylamino)pyrimidin-4-yloxy)piperidin-1-yl)prop-2-en-1-one], `C=CC(=O)N1CCC[C@@H](Oc2nc(Nc3cccc(OC)c3)ncc2F)C1` [Compound I-190, (R)-1-(3-(5-fluoro-2-(3-methoxyphenylamino)pyrimidin-4-yloxy)piperidin-1-yl)prop-2-en-1-one] is lower in IC50: 100 to 1000 nM for the first, 10 to 100 nM for the second. The second is the more potent here.

`C=CC(=O)N(C)Cc1ccc(Nc2nc(Nc3ccc(OC)nc3)ncc2F)cc1` [Compound I-114, N-(4-(5-fluoro-2-(6-methoxypyridin-3-ylamino)pyrimidin-4-ylamino)benzyl)-N-methylacrylamide] and `C=CC(=O)N1CCc2ccc(Nc3nc(Nc4ccc(OC)nc4)ncc3F)cc21` [Compound I-166, 1-(6-(5-fluoro-2-(6-methoxypyridin-3-ylamino)pyrimidin-4-ylamino)indolin-1-yl)prop-2-en-1-one] fall in the same range of IC50: 10 to 100 nM for the first, 10 to 100 nM for the second.

`C=CC(=O)Nc1cccc(Nc2nc(Nc3ccc4c(c3)N(C(=O)C(F)(F)F)CCO4)ncc2F)c1` [Compound I-143, N-(3-(2-(4-trifluoroacetyl-2,3-dihydrobenzo[1,4]oxazin-6-yl)amino-5-fluoropyrimidin-4-ylamino)phenyl)acrylamide] and `C=CC(=O)Nc1cccc(Nc2nc(Nc3ccc4[nH]ncc4c3)ncc2F)c1` [Compound I-156] cannot be ordered by IC50: less than 10 nM for the first, less than 10 nM for the second.

First: C=CC(=O)N1CCC[C@@H](Nc2nc(Nc3cccc(Cl)c3)ncc2F)C1 [Compound I-147, (R)-1-(3-(2-(3-chlorophenylamino)-5-fluoropyrimidin-4-ylamino)piperidin-1-yl)prop-2-en-1-one]
Second: C=CC(=O)N1CCC(Nc2nc(Nc3cccc(OC)c3)ncc2F)C1 (centres unmarked) [Compound I-201, 1-(3-(5-fluoro-2-(3-methoxyphenylamino)pyrimidin-4-ylamino)pyrrolidin-1-yl)prop-2-en-1-one]
The IC50 of the first is lower: 10 to 100 nM for the first, 100 to 1000 nM for the second. The first is the more potent here.

First: C=CC(=O)N1CCOc2ccc(Nc3nc(Nc4ccc(N5CCOCC5)cc4)ncc3C(C)=O)cc21 [Compound I-169, 1-{6-[5-Acetyl-2-(4-morpholin-4-yl-phenylamino)-pyrimidin-4-ylamino]-2,3-dihydro-benzo[1,4]oxazin-4-yl}-propenone]
Second: C=CC(=O)N1CCOc2ccc(Nc3nc(Nc4ccc(N5CCOCC5)nc4)ncc3C(C)=O)cc21 [Compound I-168, 1-{6-[5-Acetyl-2-(6-morpholin-4-yl-pyridin-3-ylamino)-pyrimidin-4-ylamino]-2,3-dihydro-benzo[1,4]oxazin-4-yl}-propenone]
The IC50 of the first is lower: less than 10 nM for the first, 10 to 100 nM for the second.

First: C=CC(=O)Nc1cccc(Nc2nc(Nc3cc(OC)c(OC)c(OC)c3)ncc2F)c1 [Compound I-133, 4-(3-acrylamidophenylamino)-5-fluoro-2-(3,4,5-trimethoxyphenylamino)-pyrimidine]
Second: C=CC(=O)Nc1cccc(Nc2nc(Nc3ccc(Cl)c(OCCOC)c3)ncc2F)c1 [Compound I-321, N-(3-(2-(4-chloro-3-(2-methoxyethoxy)phenylamino)-5-fluoropyrimidin-4-ylamino)phenyl)acrylamide]
The IC50 of the first is higher: 10 to 100 nM for the first, less than 10 nM for the second. The second is the more potent here.

`C=CC(=O)Nc1cccc(Nc2nc(Nc3cccc(OCCCS(C)(=O)=O)c3)ncc2F)c1` [Compound I-138, 4-(3-acrylamidophenylamino)-5-fluoro-2-(3-(3-(methylsulfonyl)propoxy)phenylamino)-pyrimidine] and `C=CC(=O)Nc1cccc(Nc2nc(Nc3cccc(OCCN(C)C)c3)ncc2F)c1` [Compound I-233, N-(3-(2-(3-(2-(dimethylamino)ethoxy)phenylamino)-5-fluoropyrimidin-4-ylamino)phenyl)acrylamide] cannot be ordered by IC50: less than 10 nM for the first, less than 10 nM for the second.

`C=CC(=O)Nc1cccc(Nc2nc(Nc3ccccc3)ncc2C#N)c1` [Compound I-157, N-(3-(5-cyano-2-(phenylamino)pyrimidin-4-ylamino)phenyl)acrylamide] and `C=CC(=O)Nc1cccc(Nc2nc(Nc3ccccc3)ncc2C(F)(F)F)c1` [Compound I-245, N-(3-(5-trifluoromethyl-2-(phenylamino)pyrimidin-4-ylamino)phenyl)acrylamide] cannot be ordered by IC50: less than 10 nM for the first, less than 10 nM for the second.

`C=CC(=O)Nc1cccc(Nc2nc(Nc3ccc4c(cnn4C(=O)OC(C)(C)C)c3)ncc2F)c1` [Compound I-151] and `C=CC(=O)Nc1cccc(Nc2nc(Nc3cccc(OCC(C)(C)O)c3)ncc2F)c1` [Compound I-118, N-(3-(5-fluoro-2-(3-(2-hydroxy-2-methylpropoxy)phenylamino)pyrimidin-4-ylamino)phenyl)acrylamide] cannot be ordered by IC50: less than 10 nM for the first, less than 10 nM for the second.

First: C=CC(=O)N1CCc2cc(Nc3nc(Nc4cccc(S(N)(=O)=O)c4)ncc3C)ccc2C1 [Compound I-40, 3-(4-(2-acryloyl-1,2,3,4-tetrahydroisoquinolin-6-ylamino)-5-methylpyrimidin-2-ylamino)benzenesulfonamide]
Second: C=CC(=O)Nc1cccc(Nc2nc(Nc3cccc(S(N)(=O)=O)c3)ncc2C)c1 [Compound I-33, N-(3-(5-methyl-2-(3-sulfamoylphenylamino)pyrimidin-4-ylamino)phenyl)acrylamide]
The IC50 of the first is higher: 10 to 100 nM for the first, less than 10 nM for the second. The second is the more potent here.

`C=CC(=O)Nc1cccc(Nc2nc(Nc3ccc(OCCOC)nc3)ncc2F)c1` [Compound I-103, N-(3-(5-fluoro-2-(6-(2-methoxyethoxy)pyridine-3-ylamino)pyrimidin-4-ylamino)phenyl)acrylamide] and `C=CC(=O)Nc1cccc(Nc2nc(Nc3ccc(OC(C)C)nc3)ncc2F)c1` [Compound I-172, N-(3-(5-fluoro-2-(6-isopropoxypyridin-3-ylamino)pyrimidin-4-ylamino)phenyl)acrylamide] cannot be ordered by IC50: less than 10 nM for the first, less than 10 nM for the second.

First: C=CC(=O)N1CCOc2ccc(Nc3nc(Nc4ccc(OCCOC)cc4)ncc3C(C)=O)cc21 [Compound I-150, 1-(6-{5-Acetyl-2-[4-(2-methoxy-ethoxy)-phenylamino]-pyrimidin-4-ylamino}-2,3-dihydro-benzo[1,4]oxazin-4-yl)-propenone]
Second: C=CC(=O)Nc1cc(Nc2nc(Nc3ccc(OCCOC)cc3)ncc2F)ccc1F [Compound I-87, N-(2-fluoro-5-(5-fluoro-2-(4-(2-methoxyethoxy)phenylamino)pyrimidin-4-ylamino)phenyl)acrylamide]
The IC50 of the first is higher: 10 to 100 nM for the first, less than 10 nM for the second. The second is the more potent here.

First: C=CC(=O)Nc1cccc(Nc2nc(Nc3ccc(OCC4CCN(C)CC4)nc3)ncc2F)c1 [Compound I-78, N-(3-(5-fluoro-2-(6-((1-methylpiperidin-4-yl)methoxy)pyridin-3-ylamino)pyrimidin-4-ylamino)phenyl)acrylamide]
Second: C=CC(=O)Nc1cccc(Nc2nc(Nc3ccc(OCCO)nc3)ncc2C(C)=O)c1 [Compound I-121, N-(3-{5-Acetyl-2-[6-(2-hydroxy-ethoxy)-pyridin-3-ylamino]-pyrimidin-4-ylamino}-phenyl)-acrylamide]
The IC50 of the first is lower: less than 10 nM for the first, 10 to 100 nM for the second.

First: C=CC(=O)Nc1ccc(C)c(Nc2ncc(C)c(Nc3cccc(C)c3)n2)c1 [Compound I-8, N-(4-methyl-3-(5-methyl-4-(m-tolylamino)pyrimidin-2-ylamino)phenyl)acrylamide]
Second: C=CC(=O)Nc1cccc(Nc2nc(Nc3cccc(S(N)(=O)=O)c3)ncc2F)c1 [Compound I-160, N-(3-(5-fluoro-2-(3-sulfamoylphenylamino)pyrimidin-4-ylamino)phenyl)acrylamide]
The IC50 of the first is higher: 100 to 1000 nM for the first, 10 to 100 nM for the second.

First: C=CC(=O)N1CCCC(Nc2nc(Nc3ccccc3)ncc2C)C1 (centres unmarked) [Compound I-27]
Second: C=CC(=O)N1CCC[C@@H](Nc2nc(Nc3ccc(OC)nc3)ncc2F)C1 [Compound I-202, (R)-1-(3-(5-fluoro-2-(6-methoxypyridin-3-ylamino)pyrimidin-4-ylamino)piperidin-1-yl)prop-2-en-1-one]
The IC50 of the first is lower: 10 to 100 nM for the first, 100 to 1000 nM for the second. The first is the more potent here.

First: C=CC(=O)Nc1cccc(Nc2nc(Nc3cccc(OCCCN4CCOCC4)c3)ncc2F)c1 [Compound I-208, N-(3-(5-fluoro-2-(3-(3-morpholinopropoxy)phenylamino)pyrimidin-4-ylamino)phenyl)acrylamide]
Second: C=CC(=O)Nc1cccc(Nc2nc(Nc3ccc(OCCCNC(=O)OC(C)(C)C)cc3)ncc2F)c1 [Compound I-198, tert-butyl 3-(4-(4-(3-acrylamidophenylamino)-5-fluoropyrimidin-2-ylamino)phenoxy)propylcarbamate]
The IC50 of the first is higher: 10 to 100 nM for the first, less than 10 nM for the second. The second is the more potent here.

`C=CC(=O)Nc1cccc(Nc2nc(Nc3ccc(OCc4ccccn4)c(Cl)c3)ncc2F)c1` [Compound I-86, N-(3-(2-(3-chloro-4-(pyridin-2-ylmethoxy)phenylamino)-5-fluoropyrimidin-4-ylamino)phenyl)acrylamide] and `C=CC(=O)Nc1cccc(Oc2nc(Nc3ccc(OC)nc3)ncc2F)c1` [Compound I-217] cannot be ordered by IC50: less than 10 nM for the first, less than 10 nM for the second.

`C=CC(=O)N1Cc2ccc(Nc3nc(Nc4ccc(OC)nc4)ncc3F)cc2C1` [Compound I-165, 1-(5-(5-fluoro-2-(6-methoxypyridin-3-ylamino)pyrimidin-4-ylamino)isoindolin-2-yl)prop-2-en-1-one] and `C=CC(=O)Nc1cccc(Oc2nc(Nc3cccc(OC)c3)ncc2C(N)=O)c1` [Compound I-178, 4-(3-acrylamidophenoxy)-2-(3-methoxyphenylamino)pyrimidine-5-carboxylic acid amide] fall in the same range of IC50: 10 to 100 nM for the first, 10 to 100 nM for the second.
